Data taken from ChEMBL document CHEMBL6087421, “Development of selective sigma-1 receptor ligands with antiallodynic activity: A focus on piperidine and piperazine scaffolds” (Eur J Med Chem, 2025).
In brackets after ≈: the same amount, converted by molar mass. Activity calls are given as the source filed them. The rule behind the calls is not given here.

Assays:
HMC3 = assay: Cytotoxicity against human HMC3 cells assessed as reduction in cell viability at 0.1 to 30 uM incubated for 48 hrs by acridine orange staining based microplate reader analysis; format: toxicity; details: hmc3, 48 h, dose 0.1-30 µM
[1] = molecular target: Sigma intracellular receptor 2 (Homo sapiens, UniProt Q5BJF2); assay: Binding affinity to S2R (unknown origin) assessed as inhibition constant
[2] = molecular target: T1, Sigma non-opioid intracellular receptor 1 (Homo sapiens, UniProt Q99720)
Description: Binding affinity to S1R (unknown origin) assessed as inhibition constant

Mus musculus [3] = assay: Antiallodynic activity in capsaicin-induced wild-type female CD-1 mouse at 5 to 30 mg/kg, sc measured after 45 mins relative to control; format: functional; details: dose 5-30 mg/kg, 0.75 h
Mus musculus [4] = assay: Antihyperalgesic activity in PGE2-induced S1R knockout mouse at 60 mg/kg administered subcutaneously; format: functional, organism-based; details: route sc
Mus musculus [5] = assay: Antiallodynic activity in capsaicin-induced wild-type female CD-1 mouse assessed as maximum antiallodynic effect administered subcutaneously and co-administered with PRE-084 measured after 45 mins relative to control; format: functional; details: route sc, 0.75 h
Mus musculus [6] = assay: Antiallodynic activity in capsaicin-induced wild-type female CD-1 mouse assessed as maximum antiallodynic effect at 30 mg/kg, sc co-administered with PRE-084 measured after 45 mins; format: functional, organism-based
Mus musculus [7] = assay: Antiallodynic activity in capsaicin-induced wild-type female CD-1 mouse administered subcutaneously and measured after 45 min; format: functional, organism-based; details: route sc
Mus musculus [8] = assay: Antihyperalgesic activity in PGE2-induced wild type female CD-1 mouse assessed as increase in response latency at 60 mg/kg, sc and measured by paw pressure test; format: functional, organism-based
Mus musculus [9] = assay: Antiallodynic activity in capsaicin-induced wild-type female CD-1 mouse assessed as maximum antiallodynic effect at 10 mg/kg, sc co-administered with PRE-084 measured after 45 mins; format: functional, organism-based
Mus musculus [10] = assay: Antiallodynic activity in capsaicin-induced wild-type female CD-1 mouse at 10 mg/kg, sc measured after 45 mins relative to control; format: functional; details: 0.75 h
Mus musculus [11] = assay: Antihyperalgesic activity in PGE2-induced S1R knockout mouse at 10 mg/kg administered subcutaneously; format: functional, organism-based; details: route sc
Mus musculus [12] = assay: Antiallodynic activity in capsaicin-induced wild-type female CD-1 mouse at 2 to 10 mg/kg, sc measured after 45 mins; format: functional, organism-based; details: dose 2-10 mg/kg
[13] = molecular target: T1, Sigma non-opioid intracellular receptor 1; assay: Displacement of [3H]-(+)-PTZ from S1R (unknown origin) assessed as inhibition constant by radioligand binding assay
Mus musculus [14] = assay: Antihyperalgesic activity in PGE2-induced wild type female CD-1 mouse assessed as increase in response latency at 10 mg/kg, sc and measured by paw pressure test; format: functional, organism-based
[15] = Stability of compound in phosphate buffer at pH 7.4 assessed as half life; format: physicochemical
Mus musculus [16] = assay: Antiallodynic activity in capsaicin-induced wild-type female CD-1 mouse at 5 to 10 mg/kg, sc measured after 45 mins; format: functional, organism-based; details: dose 5-10 mg/kg
[17] = Octanol/water partition coefficient, log P of the compound; format: physicochemical
[18] = molecular target: Voltage-gated inwardly rectifying potassium channel KCNH2 (Homo sapiens, UniProt Q12809); assay: Inhibition of hERG in CHO-K1 cells; format: toxicity, cell-based
[19] = Cytotoxicity against human WS1 cells assessed as reduction in cell viability incubated for 48 hrs by acridine orange staining based microplate reader analysis; format: toxicity; details: ws1, 48 h
[20] = Lipophilicity, log D of the compound in Octanol/PBS buffer at pH 7.4 at 5 to 150 uM by UV-Vis spectrophotometric analysis; format: physicochemical; details: dose 5-150 µM
[21] = Aqueous solubility of compound by UHPLC-PDA analysis; format: physicochemical; details: buffer
[22] = Lipophilicity, log P of the compound; format: physicochemical; details: octanol/water
[23] = Lipophilicity, log D of the compound at pH 7.4; details: buffer

T1 sequence (Q99720 whole entry): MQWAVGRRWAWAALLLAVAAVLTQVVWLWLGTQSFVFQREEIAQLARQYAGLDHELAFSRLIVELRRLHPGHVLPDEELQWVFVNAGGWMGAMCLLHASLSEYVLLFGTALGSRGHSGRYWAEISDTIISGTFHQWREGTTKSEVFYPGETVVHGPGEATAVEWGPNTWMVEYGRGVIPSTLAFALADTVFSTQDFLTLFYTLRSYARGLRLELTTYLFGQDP
Sigma intracellular receptor 2, sequence (Q5BJF2 whole entry): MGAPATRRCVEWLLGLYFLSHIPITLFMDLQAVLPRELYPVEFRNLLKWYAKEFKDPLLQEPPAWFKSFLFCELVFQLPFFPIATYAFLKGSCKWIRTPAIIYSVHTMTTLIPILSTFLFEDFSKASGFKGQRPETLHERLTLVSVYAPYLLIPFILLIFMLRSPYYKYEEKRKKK
Voltage-gated inwardly rectifying potassium channel KCNH2, sequence (Q12809 whole entry): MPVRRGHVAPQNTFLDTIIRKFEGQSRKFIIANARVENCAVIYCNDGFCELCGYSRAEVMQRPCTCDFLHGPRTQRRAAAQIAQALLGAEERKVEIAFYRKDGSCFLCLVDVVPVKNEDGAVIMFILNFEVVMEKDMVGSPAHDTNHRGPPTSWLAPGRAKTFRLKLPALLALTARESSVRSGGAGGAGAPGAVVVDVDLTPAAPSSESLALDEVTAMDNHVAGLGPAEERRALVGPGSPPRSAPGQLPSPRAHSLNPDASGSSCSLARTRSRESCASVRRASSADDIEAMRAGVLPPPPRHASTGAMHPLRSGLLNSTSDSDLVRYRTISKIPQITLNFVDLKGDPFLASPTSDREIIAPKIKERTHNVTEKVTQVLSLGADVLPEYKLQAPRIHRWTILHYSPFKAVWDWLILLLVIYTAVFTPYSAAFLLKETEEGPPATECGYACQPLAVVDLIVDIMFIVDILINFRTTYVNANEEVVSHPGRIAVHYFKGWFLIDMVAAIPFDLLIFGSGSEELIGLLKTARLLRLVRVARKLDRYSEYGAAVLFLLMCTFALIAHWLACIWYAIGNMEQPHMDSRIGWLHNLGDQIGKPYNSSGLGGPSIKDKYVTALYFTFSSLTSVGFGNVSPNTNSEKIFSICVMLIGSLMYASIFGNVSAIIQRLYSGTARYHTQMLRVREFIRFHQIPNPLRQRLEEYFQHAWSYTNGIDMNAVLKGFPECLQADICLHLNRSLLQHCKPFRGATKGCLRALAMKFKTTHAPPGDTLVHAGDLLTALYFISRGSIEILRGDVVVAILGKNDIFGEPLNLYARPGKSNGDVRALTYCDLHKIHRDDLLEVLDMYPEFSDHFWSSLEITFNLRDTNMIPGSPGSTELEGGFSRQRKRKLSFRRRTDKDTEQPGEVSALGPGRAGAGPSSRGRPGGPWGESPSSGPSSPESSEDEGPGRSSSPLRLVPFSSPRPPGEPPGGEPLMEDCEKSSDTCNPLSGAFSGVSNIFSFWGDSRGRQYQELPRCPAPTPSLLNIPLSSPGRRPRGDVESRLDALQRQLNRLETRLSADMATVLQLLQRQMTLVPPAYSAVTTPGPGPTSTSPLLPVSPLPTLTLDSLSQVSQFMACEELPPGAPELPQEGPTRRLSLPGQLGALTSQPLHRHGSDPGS

CC(C)=CCN1CC[C@@]2(C)c3cc(O)ccc3C[C@@H]1[C@@H]2C
Activity (HMC3): Non-toxic

COc1ccc(CCN2CCN(CCCc3ccccc3)CC2)cc1OC [[11C]SA4503]
Ki [1]: 90 nM

COc1cc2c(cc1OC)C(=O)C(CC1CCN(Cc3ccccc3)CC1)C2 (configuration not stated) [DONEPEZIL]
Ki [2]: 15 nM

Cc1cc(OCCN2CCOCC2)nn1-c1ccc2ccccc2c1.Cl
Activity (Mus musculus [3]): 100% | Activity (Mus musculus [4]): inactive | Activity (Mus musculus [5]): 100% | Activity (Mus musculus [6]): Active | Activity (Mus musculus [7]): Dose-dependent-effect | Activity (Mus musculus [8]): Active

CCOC(=O)C(c1ccccc1)N(C)C1CCN(CCc2ccccc2)CC1 (racemic)
Activity (Mus musculus [9]): Active | Activity (Mus musculus [10]): 100% | Activity (Mus musculus [11]): inactive | Activity (HMC3): Non-toxic | Activity (Mus musculus [7]): Dose-dependent-effect | Activity (Mus musculus [12]): Active | Ki [13]: 9.9 nM | Activity (Mus musculus [14]): Active

CCOC(=O)C(c1ccccc1)N(C)C1CCN(Cc2ccccc2)CC1 (racemic)
Activity (Mus musculus [9]): Active | Activity (Mus musculus [10]): 100% | half-life [15]: 1.59 h | Activity (Mus musculus [11]): inactive | Activity (Mus musculus [16]): Active | logP [17]: 1.79 | Activity (HMC3): Non-toxic | IC50 [18]: 1600 nM | Activity [19]: Non-toxic | Activity (Mus musculus [7]): Dose-dependent-effect | logD at up to 150 µM [20]: 1.72 | solubility [21]: 1870 µg/mL (≈ 5.1 mM) | Activity (Mus musculus [14]): Active

CCN(CC)C(=O)C(c1ccccc1)N(C)C1CCN(CCc2ccccc2)CC1 (racemic)
Ki [13]: 108 nM

O=C(CCCN1CCC(O)(c2ccc(Cl)cc2)CC1)c1ccc(F)cc1 [HALOPERIDOL]
logP [22]: 4.03 | logD [23]: 3.99

CN1CCN(CCc2ccc(Cl)c(Cl)c2)CC1
Activity (HMC3): Non-toxic | Ki [1]: 6.5 nM | Ki [2]: 14 nM | Ki [13]: 14 nM
